Read-outs that look alike come from different tables or passages of the source. No end group written: not given here.
Assays:
CRFK cells = experiment: MTT cytotoxicity, CRFK cells; format: cell-based, feline; conditions: 24 h peptide treatment, 3-200 µM, 37 °C, absorbance 570 nm, nonlinear regression, at least three independent experiments
Protocol: (§1) BHK-21, U-87 MG, A-72, and CRFK cells were seeded in 96-well plates at an initial density of 2 × 10^4 cells per well and incubated for 24 h at 37 °C. Then, serial dilutions of peptides ranging from 3 to 200 µM were added to the cell monolayer and incubated for 24 h at 37 °C. Cytotoxicity was evaluated by adding 5 μL of methylthiazolyldiphenyl-tetrazolium bromide (MTT; cod. M2003, Sigma-Aldrich, St. Louis, MO, USA) to each well. After 4 h of incubation, the plate was emptied, and formazan crystals were solubilized with dimethyl sulfoxide (DMSO; 100%). Cell viability was calculated by measuring absorbance at 570 nm using a microplate reader. The negative control (CTRL−, toxicity control) consisted of cells treated with DMSO, while the positive control (CTRL+, viable cells) included untreated cells.
(§2) All tests were performed in triplicate and expressed as mean ± standard deviation (SD). Graphs and statistical analysis were generated using GraphPad Prism version 9.5.1 for macOS (GraphPad Software, San Diego, CA, USA, www.graphpad.com, accessed on 5 February 2025). The 50% cytotoxic concentration (CC50) and the 50% inhibitory concentration (IC50) were calculated by nonlinear regression analysis based on dose–response curves generated from at least three independent experiments.

[1] = tested on: BHK-21, A-72, CRFK, and U-87 MG cells; experiment: MTT cytotoxicity, statements for all tested cell lines; format: cell-based; conditions: 24 h, concentrations of 50 μM and below
Protocol: as §1

A-72 cells = experiment: MTT cytotoxicity, A-72 cells; format: cell-based, canine; conditions: 24 h peptide treatment, 3-200 µM, 37 °C, absorbance 570 nm, nonlinear regression, at least three independent experiments
Protocol: as §1, §2

BHK-21 cells = experiment: MTT cytotoxicity, BHK-21 cells; format: cell-based, hamster; conditions: 24 h peptide treatment, 3-200 µM, 37 °C, absorbance 570 nm, nonlinear regression, at least three independent experiments
Protocol: as §1, §2

TOSV [2] = conditions: 24 h
SBV [3] = conditions: 1 h
TOSV [4] = conditions: 24 h; remark: listed apart in the source
U-87 MG cells = experiment: MTT cytotoxicity, U-87 MG cells; format: cell-based, human; conditions: 24 h peptide treatment, 3-200 µM, 37 °C, absorbance 570 nm, nonlinear regression, at least three independent experiments
Protocol: as §1, §2

TOSV [5] = conditions: 24 h; remark: listed apart in the source
SBV [6] = conditions: 48 h
SBV [7] = conditions: 48 h; remark: listed apart in the source

In the case of IFGAIWKGISSLL-NH2 [pantinin-2], the CC50 (CRFK cells) is reported as 82.2 µM, the “Cytotoxicity at 50 μM and below” value [1] is reported as “neither pantinin-1 nor pantinin-2 induced any detectable cytotoxicity” and the CC50 (A-72 cells) is reported as 90.7 µM. The CC50 (BHK-21 cells) was 100.8 µM, the IC50 (TOSV [2]) was 3 µM and the IC50 (SBV [3]) was 4.8 µM. The IC50 (TOSV [4]) was 3 µM, the CC50 (U-87 MG cells) was 82 µM and the IC50 (TOSV [5]) was 3 µM.

In the case of GILGKLWEGFKSIV-NH2 [pantinin-1], the CC50 (CRFK cells) is reported as 93.5 µM, the IC50 (SBV [6]) is reported as 5.8 µM and the “Cytotoxicity at 50 μM and below” value [1] is reported as “neither pantinin-1 nor pantinin-2 induced any detectable cytotoxicity”. For the same substance, the CC50 (A-72 cells) was 93.6 µM, the CC50 (BHK-21 cells) was 136.6 µM and the IC50 (SBV [7]) was 6 µM. It also gave an IC50 (SBV [3]) of 12.8 µM and a CC50 (U-87 MG cells) of 114.3 µM.

From article PMC12300298, “Expanding the Antiviral Spectrum of Scorpion-Derived Peptides Against Toscana Virus and Schmallenberg Virus” (Pathogens, 2025)
